Source: PubChem BioAssay (NCI)
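In this assay, cells in 96-well plates receive the compound at five concentrations for 48 hours. Endpoints are linearly interpolated between the surrounding concentrations. GI50 is the concentration that inhibits growth by half. Definition used: TGI = concentration required for complete inhibition of growth.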

Assays:
Test in all cases: inhibition of tumour cell growth, NCI panel, 48 h
NCI-H460 lung = test system: NCI-H460 lung
A549 NSCLC = test system: A549 NSCLC
NCI-H226 lung = test system: NCI-H226 lung
786-0 renal = test system: 786-0 renal
OVCAR-5 ovarian = test system: OVCAR-5 ovarian
UO-31 renal = test system: UO-31 renal
SK-MEL-5 melanoma = test system: SK-MEL-5 melanoma
K-562 leukemia = test system: K-562 leukemia
IGROV1 ovarian = test system: IGROV1 ovarian
SN12C renal = test system: SN12C renal

SMILES | TGI (NCI-H460 lung) | TGI (A549 NSCLC) | TGI (NCI-H226 lung) | TGI (786-0 renal) | TGI (OVCAR-5 ovarian) | TGI (UO-31 renal) | TGI (SK-MEL-5 melanoma) | TGI (K-562 leukemia) | TGI (IGROV1 ovarian) | TGI (SN12C renal) | GI50 (NCI-H460 lung) | GI50 (A549 NSCLC) | GI50 (NCI-H226 lung) | GI50 (786-0 renal) | GI50 (OVCAR-5 ovarian) | GI50 (UO-31 renal) | GI50 (SK-MEL-5 melanoma) | GI50 (K-562 leukemia) | GI50 (IGROV1 ovarian) | GI50 (SN12C renal)
COc1cccc2c1C1=CC(=O)CCC1C(C)(C)O2 (configuration not stated) | > 100 µM | > 100 µM | > 100 µM | > 100 µM | > 100 µM | > 100 µM | > 100 µM | > 100 µM | > 100 µM | > 100 µM | – | – | – | – | – | – | – | – | – | –
O=[N+]([O-])/C=C\c1ccc2c(c1)OCO2 | 27.5 µM | 5.23 µM | 53 µM | 3.52 µM | 26.4 µM | 3.2 µM | 13.9 µM | > 100 µM | 4.67 µM | 30.3 µM | 10.6 µM | 2.34 µM | 13.8 µM | 1.84 µM | 11.5 µM | 1.59 µM | 3.68 µM | 3.16 µM | 1.98 µM | 11.4 µM
CCc1ccc(C2=C(O)C(=O)C(c3ccc(CC)cc3)=C(O)C2=O)cc1 | 5 µM | 10.4 µM | 7.34 µM | 2.95 µM | 5.88 µM | 4.91 µM | 3.86 µM | 3.61 µM | 3.54 µM | 9.79 µM | 2.06 µM | 2.74 µM | 1.9 µM | 1.57 µM | 1.61 µM | 1.73 µM | 1.89 µM | 1.34 µM | 1.59 µM | 2.28 µM
CN(C)CCNC(=O)c1cc([N+](=O)[O-])cc2ccc(-c3ccccc3)nc12 | 12.8 µM | 28 µM | 11.8 µM | 94.3 µM | 27.6 µM | 11.2 µM | 11.8 µM | 54.1 µM | 25.6 µM | > 62.7 µM | – | – | – | – | – | – | – | – | – | –
CN(C)CCNc1cccc2sc3ccc(O)cc3c(=O)c12 | 2.47 µM | 5.54 µM | 23.1 µM | 6.28 µM | 22.8 µM | 3.58 µM | 3.25 µM | 5.6 µM | 12.5 µM | 13.6 µM | 0.548 µM | 0.643 µM | 5.94 µM | 2.23 µM | 7.32 µM | 1.16 µM | 1.69 µM | 2.4 µM | 3.13 µM | 2.54 µM
CCOC(=O)C(=O)Nc1c(C)cccc1CC | > 100 µM | > 100 µM | > 100 µM | > 100 µM | > 100 µM | > 100 µM | > 100 µM | > 100 µM | > 100 µM | > 100 µM | – | – | – | – | – | – | – | – | – | –
COC(=O)/C(=N/NC(C)(C)C)C(C(=O)C=C(C)C)C(=O)C(=O)Nc1ccc(Cl)cc1C (configuration not stated) | > 100 µM | > 100 µM | > 100 µM | > 100 µM | > 100 µM | > 100 µM | > 100 µM | > 100 µM | > 100 µM | > 100 µM | – | – | – | – | – | – | – | – | – | –
Nc1ccc2c(c1)[O][Sn]([c]1ccccc1)([c]1ccccc1)[O]C2=O | 33.6 µM | 15.9 µM | 16.7 µM | 7.95 µM | 31.1 µM | 26 µM | 25 µM | 15.2 µM | 29.2 µM | 20.4 µM | 16 µM | 4.61 µM | 9.13 µM | 3.79 µM | 17.2 µM | 12.5 µM | 11.6 µM | 2.56 µM | 12.4 µM | 7.24 µM
O=C1/C(=C\c2cccs2)Oc2ccccc21 | > 100 µM | > 100 µM | > 100 µM | > 100 µM | > 100 µM | 83.3 µM | > 100 µM | > 100 µM | > 100 µM | > 100 µM | – | – | – | – | – | – | – | – | – | –
COc1cc(C(C#N)NNC(=O)c2ccccc2O)ccc1O (configuration not stated) | > 100 µM | > 100 µM | 38 µM | > 100 µM | > 100 µM | 3.28 µM | > 100 µM | > 100 µM | > 100 µM | > 100 µM | – | – | – | – | – | – | – | – | – | –
Cc1cc(O)cc(C)c1/C=C/c1cncc(C(=O)N(C)C)c1 | > 25 µM | > 25 µM | > 25 µM | > 25 µM | > 25 µM | > 25 µM | > 25 µM | > 25 µM | > 25 µM | > 25 µM | > 25 µM | > 25 µM | > 25 µM | > 25 µM | > 25 µM | > 25 µM | > 25 µM | > 25 µM | > 25 µM | > 25 µM
N#C/C(=C(\O)C(=O)O)c1ccc(-c2cccc3ccccc23)cc1 | > 100 µM | > 100 µM | > 100 µM | > 100 µM | > 100 µM | > 100 µM | > 100 µM | > 100 µM | > 100 µM | > 100 µM | – | – | – | – | – | – | – | – | – | –
O=C(c1ccco1)N(C(=S)N1CCN(c2ccccc2)CC1)c1ccccc1 | > 100 µM | > 100 µM | > 100 µM | > 100 µM | > 100 µM | > 100 µM | > 100 µM | > 100 µM | > 100 µM | > 100 µM | – | – | – | – | – | – | – | – | – | –
CCOC(OC1=C(C#N)CCC1)C(CC)[Se]c1ccccc1 (configuration not stated) | > 100 µM | > 100 µM | 53.4 µM | 28.2 µM | 54.8 µM | 73.6 µM | 31.6 µM | > 100 µM | 71 µM | 32.3 µM | – | – | – | – | – | – | – | – | – | –
O=c1oc2c3ccc4ccccc4c3n(Cc3nc4ccccc4[nH]3)c2c2ccccc12 | > 100 µM | > 100 µM | > 100 µM | > 47.9 µM | > 100 µM | > 100 µM | – | > 100 µM | > 100 µM | > 100 µM | – | – | – | – | – | – | – | – | – | –
c1cc(-c2sc(-c3ccncc3)c(-c3ccncc3)c2-c2ccncc2)ccn1 | 23.8 µM | 45.8 µM | 30.4 µM | 33 µM | 47.2 µM | 30 µM | 28.6 µM | > 100 µM | > 100 µM | 46.5 µM | – | – | – | – | – | – | – | – | – | –
Cc1c2ncccc2c(C)c2c1[nH]c1ccccc12 | 28.7 µM | 21.1 µM | 35.9 µM | 23.2 µM | 27.1 µM | – | – | 41.7 µM | 29.4 µM | 26 µM | – | – | – | – | – | – | – | – | – | –
CC(=O)O/C(C)=C\C(=O)O/N=C(\N)c1ccc(C)cc1 | > 100 µM | > 100 µM | 92.9 µM | > 100 µM | > 100 µM | > 100 µM | 58.5 µM | 52.1 µM | > 100 µM | 57.4 µM | – | – | – | – | – | – | – | – | – | –
